Data reported in US20250059139A1, “COMPOUNDS FOR TREATMENT OF CANCER” (THE JOHNS HOPKINS UNIVERSITY, priority 2021, published 2025).
Several values for one entry are separate records, joined by “and”; a condition that tells them apart may be missing. Equal values may be shown once. Read-outs that look alike come from different tables or passages of the source.

Legend:
[1] = test system: human prostate cancer cell lines; test: In vitro growth of human prostate cancer cell lines; format: cell-based; settings: CWR22Rv1, 3 of the 4 lines (FIGS. 48A-48C: BCap-1, LgCap-1, CWR-22Rv1)
Excerpt: (§1) Prostate Cancer Models. The source, history, and characteristics of the human prostate cancer cell lines and PDXs used, as well as cell culture conditions for their in vitro maintenance and the in vivo protocol for xenograft growth in triple immune-deficient NSG (i.e. NOD.Cg-PrkdcScidIl2rgtmlWji/Szj), adult (>8 week old) male mice obtained from the Sidney Kimmel Comprehensive Cancer Center (SKCCC) Animal Core Facility are described previously (Isaacs 2013; Brennen et al. JCI Insight. 2021, 6(8):e146827; Zhu et al. Oncogene 2020, 39(45): 6935-6949). […] In vitro growth curves were determined as described (Isaacs 2013). In vivo growth response to oral daily TasQ (10 mg/kg/d) of TRAMP-C2 mouse prostate cancers was evaluated in C57BL/6J syngeneic wild type vs. NOX-2 vs. iNOS null male mice obtained from Jackson Laboratory (Bar Harbor, ME). Growth response to oral daily TasQ (10 mg/kg/d) of TRAMP-C2 and B6CaP mouse prostate cancers was also evaluated in S100A9 null C57BL′6J male mice obtained from Dmitry Gabrilovich (Wistar Institute). […] In vitro growth curves were determined as described (Isaacs 2013). Growth response to daily oral TasQ vs. ESATA-20 (both at 10 mg/kg/d) of Myc-CaP-CR mouse prostate cancer was evaluated in syngeneic FVB/NJ castrate male mice from Jackson Laboratory. […]

panel of 68 kinases = test: Targeted kinase screen (Kinase Profiling Service, Thermo Fisher Scientific); format: biochemical; settings: 10 μM
Procedure: Targeted kinase screen. Inhibition of enzymatic activity of a panel of kinases in the presence of 10 μM ESATA-20 was analyzed by the Kinase Profiling Service at Thermo Fisher Scientific.

[2] = biological target: T1, fl-R681A/R798A double mutant HDAC4 / fl-NCoR1 (Homo sapiens, UniProt P56524, R681A/R798A); test: SPR inhibition of fl-R681A/R798A double mutant HDAC4 binding to fl-NCoR1; settings: plateau at 2 μM TasQ
T1 construct: Full-length (fl) [A.A. 1-1082] recombinant human histone deacetylase 4 (rhHDAC4) protein; FLAG (N); GST (given as 'with or without'); host or cells: HEK293-T (HDAC4)
T1 sequence (P56524 whole entry R681A/R798A): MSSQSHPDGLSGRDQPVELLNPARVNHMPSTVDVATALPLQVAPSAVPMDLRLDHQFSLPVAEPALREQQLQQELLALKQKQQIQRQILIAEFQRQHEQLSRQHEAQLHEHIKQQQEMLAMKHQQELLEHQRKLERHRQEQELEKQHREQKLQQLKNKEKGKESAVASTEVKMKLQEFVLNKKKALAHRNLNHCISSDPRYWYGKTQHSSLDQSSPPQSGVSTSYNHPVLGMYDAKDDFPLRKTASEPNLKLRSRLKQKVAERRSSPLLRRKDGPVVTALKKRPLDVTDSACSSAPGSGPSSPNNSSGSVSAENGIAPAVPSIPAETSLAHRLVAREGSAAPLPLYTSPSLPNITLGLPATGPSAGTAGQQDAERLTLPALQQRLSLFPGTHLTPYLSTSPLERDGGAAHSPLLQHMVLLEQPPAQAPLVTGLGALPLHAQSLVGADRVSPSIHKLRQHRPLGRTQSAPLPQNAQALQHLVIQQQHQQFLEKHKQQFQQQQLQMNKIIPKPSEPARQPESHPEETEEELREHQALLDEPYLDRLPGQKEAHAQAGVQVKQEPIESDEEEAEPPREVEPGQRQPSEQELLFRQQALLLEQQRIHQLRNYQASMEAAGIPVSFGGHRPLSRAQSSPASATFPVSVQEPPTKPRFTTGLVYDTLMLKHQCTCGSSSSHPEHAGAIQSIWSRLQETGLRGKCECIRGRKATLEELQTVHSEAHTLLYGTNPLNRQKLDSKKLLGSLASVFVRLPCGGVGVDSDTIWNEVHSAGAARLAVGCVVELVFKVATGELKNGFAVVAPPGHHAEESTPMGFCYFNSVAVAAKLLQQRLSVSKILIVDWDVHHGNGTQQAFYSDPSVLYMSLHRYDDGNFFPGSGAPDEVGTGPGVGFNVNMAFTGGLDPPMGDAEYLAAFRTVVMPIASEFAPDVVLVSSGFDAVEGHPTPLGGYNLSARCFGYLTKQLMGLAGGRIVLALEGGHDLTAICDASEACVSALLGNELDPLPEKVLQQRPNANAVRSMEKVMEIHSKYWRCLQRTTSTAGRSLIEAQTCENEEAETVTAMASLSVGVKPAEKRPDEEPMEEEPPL
Procedure: Surface Plasmon Resonance (SPR) Binding Analysis. SPR analysis was performed on the Biacore 3000™ system using CM5 sensor chips, certified buffers (HBS-P—10 mM HEPES, 0.15 M NaCl, pH 7.4, containing 0.005% v/v Surfactant P; HBS-EP-HBS-P with 3 mM EDTA) and reagents for immobilization and surface regeneration from Biacore, GE Healthcare, Uppsala Sweden. Evaluation of sensorgrams was performed using the BIA-evaluation Software version 4.1 and GraphPad Prism 4. Buffer of protein reagents were changed to HBS-P on Zeba spin desalting columns (Thermo Scientific) prior to being used in SPR analysis (Isaacs 2013).
C. Inhibition of HDAC4-NCoR1 interaction by TasQ. The interaction between HDAC4 and NCoR1 was studied either by injecting NCoR over immobilized HDAC4 or with an alternative orientation where HDAC4 was passed over a surface with covalently coupled NCoR1. Whether TasQ can inhibit the formation of the functional HDAC4-NCoR1 complex was tested by pre-incubation with NCoR1 or HDAC4.
These additional analyses again documented high-affinity binding of the wild-type fl-HDAC4 protein to fl-NCoR1 with such binding being competed by pre-incubation with TasQ in solution (FIG. 21).

[3] = test system: LvCaP-3 human prostate cancer PDXs; test: In vivo growth of LvCaP-3 xenografts in castrate hosts; settings: daily oral 10 mg/kg
Excerpt: as §1

[4] = test system: human prostate cancer cell lines; settings: optimal normoxic, nutrient and pH culture conditions; previous studies; read-out: IC50 in vitro growth of human prostate cancer cell lines; cited from earlier work
[5] = test system: prostate cancer xenografts; settings: daily oral 10 mg/kg/d; cited from earlier work
S100A9 = S100A9 (Homo sapiens, UniProt P06702); settings: Kallberg et al. 2012; cited from earlier work
Sequence of S100A9 (P06702 whole entry, species assumed): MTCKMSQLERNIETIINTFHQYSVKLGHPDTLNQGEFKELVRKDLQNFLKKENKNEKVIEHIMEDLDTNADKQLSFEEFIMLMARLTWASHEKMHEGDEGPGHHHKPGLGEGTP

Compound	IC50 [1]	change in activity in any of the 68 kinases tested (panel of 68 kinases)	inhibition at 2 µM [2]	inhibition of growth of LvCaP-3 xenografts at the end of study [3]	IC50 [4]	enhancement of hypoxia [5]	pO2 in the TME [5]	affinity to S100A9 (S100A9)
COc1cccc2c1c(O)c(C(=O)N(c1ccc(C(F)(F)F)cc1)C1CCCCC1)c(=O)n2C [ESATA-20]	< 10 µM	< 15%	–	–	–	–	–	–
COc1cccc2c1c(O)c(C(=O)N(C)c1ccc(C(F)(F)F)cc1)c(=O)n2C [TasQ, Tasquinimod]	–	–	< 35%	⅔	> 50 µM and ~50 µM	> 2 fold	1.4+/−1.0 mmHg	nanomolar (nM) affinity
